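Grown in 96-well plates, cells were treated for 48 hours with each compound at five concentrations. Insufficient inhibition: endpoint recorded as highest concentration tested. GI50 marks 50% less growth.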 Calls of active or inactive are those of the source. Rule as the data show it: active = GI50 up to about 1.1 µM and inactive = higher.
What was measured:
Test in all cases: NCI tumour cell line growth inhibition, 48 h
SF-539 = tested on: SF-539
HCC 2998 = tested on: HCC 2998
UACC-62 = tested on: UACC-62
NCI-H522 = tested on: NCI-H522
A498 = tested on: A498
NCI-H226 = tested on: NCI-H226
MOLT-4 = tested on: MOLT-4
NCI-H23 = tested on: NCI-H23
MDA-N = tested on: MDA-N
HL-60 = tested on: HL-60
RXF 393 = tested on: RXF 393
HCT-15 = tested on: HCT-15
ACHN = tested on: ACHN
RPMI-8226 = tested on: RPMI-8226
KM12 = tested on: KM12
BT-549 = tested on: BT-549
OVCAR-5 = tested on: OVCAR-5
LOX IMVI = tested on: LOX IMVI
MDA-MB-231 = tested on: MDA-MB-231
SF-295 = tested on: SF-295

Compound | GI50 (SF-539) | GI50 (HCC 2998) | GI50 (UACC-62) | GI50 (NCI-H522) | GI50 (A498) | GI50 (NCI-H226) | GI50 (MOLT-4) | GI50 (NCI-H23) | GI50 (MDA-N) | GI50 (HL-60) | GI50 (RXF 393) | GI50 (HCT-15) [µM] | GI50 (ACHN) | GI50 (RPMI-8226) | GI50 (KM12) | GI50 (BT-549) | GI50 (OVCAR-5) | GI50 (LOX IMVI) | GI50 (MDA-MB-231) | GI50 (SF-295)
CC1CCC2C(C)C3C(CC4C5CC=C6CC(OC7OC(CO)C(O)C(OC8OC(CO)C(O)C(O)C8O)C7OC7OC(C)C(O)C(O)C7O)CCC6(C)C5CCC43C)N2C1 (centres undefined) | 8.83 µM (inactive) | 18.1 µM (inactive) | 13.8 µM (inactive) | 15.1 µM (inactive) | 17.5 µM (inactive) | 20.8 µM (inactive) | 28.6 µM (inactive) | 14.7 µM (inactive) | 10.7 µM (inactive) | 8.24 µM (inactive) | 10.2 µM (inactive) | 17.3 | 8.89 µM (inactive) | 19.9 µM (inactive) | 14.8 µM (inactive) | 16.5 µM (inactive) | 14.3 µM (inactive) | 15 µM (inactive) | 13.6 µM (inactive) | 10.2 µM (inactive)
CC(C)(C)OC(=O)c1ccc(NCc2cc(O)ccc2O)cc1 | 1.22 µM (inactive) | 7.36 µM (inactive) | 7.16 µM (inactive) | 0.24 µM (active) | 9.68 µM (inactive) | 2.22 µM (inactive) | 1.03 µM (active) | 4.93 µM (inactive) | 3.31 µM (inactive) | 0.447 µM (active) | 1.36 µM (inactive) | 1.32 | 1.73 µM (inactive) | 0.617 µM (active) | 2.93 µM (inactive) | 2 µM (inactive) | 6.58 µM (inactive) | 3.88 µM (inactive) | 2.31 µM (inactive) | 7.41 µM (inactive)
COc1cccc(/C=C/C2=NN(c3cccc(S(=O)(=O)O)c3)C3(C2)SCC(=O)N3c2nc3ccccc3s2)c1 (centres undefined) | 17.1 µM (inactive) | 95.1 µM (inactive) | 36 µM (inactive) | 14.7 µM (inactive) | 33 µM (inactive) | 23.8 µM (inactive) | 28.2 µM (inactive) | 86.1 µM (inactive) | 62.7 µM (inactive) | 26.7 µM (inactive) | 54.8 µM (inactive) | 53.5 | 51.8 µM (inactive) | 22.5 µM (inactive) | 32 µM (inactive) | 53 µM (inactive) | > 100 µM (inactive) | 21.1 µM (inactive) | 36.1 µM (inactive) | 
CCOC(=O)C#Cc1ccc(C#CC(=O)OCC)cc1 | 10.6 µM (inactive) | 6.46 µM (inactive) | 3.37 µM (inactive) | 2.9 µM (inactive) | 14.2 µM (inactive) | 3.3 µM (inactive) | 1.02 µM (active) | 3.69 µM (inactive) | 1.2 µM (inactive) | 2.74 µM (inactive) | 2.62 µM (inactive) | 1.81 | 3.45 µM (inactive) | 2.56 µM (inactive) | 2.76 µM (inactive) | 3.95 µM (inactive) | 11.8 µM (inactive) | 3.03 µM (inactive) | 5.11 µM (inactive) | 13.5 µM (inactive)
O=c1c2ncn(COCCCl)c2n(-c2ccccc2)c(=S)n1-c1ccccc1 | > 100 µM (inactive) | > 100 µM (inactive) | > 100 µM (inactive) | > 100 µM (inactive) | > 100 µM (inactive) | > 100 µM (inactive) | > 100 µM (inactive) | > 100 µM (inactive) | > 100 µM (inactive) | > 100 µM (inactive) | > 100 µM (inactive) | > 100 | > 100 µM (inactive) | 79.8 µM (inactive) | > 100 µM (inactive) | > 100 µM (inactive) | > 100 µM (inactive) | > 100 µM (inactive) | > 100 µM (inactive) | > 100 µM (inactive)
COC1=C(C)C(=O)c2c(c(COC(N)=O)c3n2CC(OC(C)=O)C3OC(C)=O)C1=O (centres undefined) | 0.0239 µM (active) | 0.111 µM (active) | 0.0857 µM (active) | 0.0137 µM (active) | 0.593 µM (active) | 0.297 µM (active) | 0.242 µM (active) | 0.0436 µM (active) | 0.126 µM (active) | < 0.0192 µM (active) | 0.152 µM (active) | 0.0126 | < 0.01 µM (active) | 0.0577 µM (active) | 0.228 µM (active) | 0.296 µM (active) | 0.267 µM (active) | 0.0294 µM (active) | 0.2 µM (active) | 0.0631 µM (active)
COc1ccc2cc3c4cc5c(cc4cc[n+]3cc2c1OC)OCO5 | 11.4 µM (inactive) | 22 µM (inactive) | 12.3 µM (inactive) | 3.63 µM (inactive) | > 100 µM (inactive) | 26.4 µM (inactive) | 8.53 µM (inactive) | 8.09 µM (inactive) | 7.52 µM (inactive) | 19.2 µM (inactive) | 24.4 µM (inactive) | 83.2 | 38.4 µM (inactive) | 8.13 µM (inactive) | 2.88 µM (inactive) | 1.63 µM (inactive) | 47.5 µM (inactive) | 28.4 µM (inactive) | 23.4 µM (inactive) | 5.53 µM (inactive)
C=C1OC(c2ccccc2NC)=NC12CCCCC2 | > 100 µM (inactive) | > 100 µM (inactive) | > 100 µM (inactive) | > 100 µM (inactive) | > 100 µM (inactive) | > 100 µM (inactive) | > 100 µM (inactive) | > 100 µM (inactive) | > 100 µM (inactive) | > 100 µM (inactive) | > 100 µM (inactive) | > 100 | > 100 µM (inactive) |  | > 100 µM (inactive) | > 100 µM (inactive) | > 100 µM (inactive) | > 100 µM (inactive) | > 100 µM (inactive) | > 100 µM (inactive)
CC(=N\N=C\c1ccccn1)/C(C)=N/N=C/c1ccccn1 | > 100 µM (inactive) | > 100 µM (inactive) |  | > 100 µM (inactive) | > 100 µM (inactive) | > 100 µM (inactive) | > 10 µM (inactive) | > 100 µM (inactive) | 51.6 µM (inactive) | > 100 µM (inactive) | > 100 µM (inactive) | 60.8 | > 100 µM (inactive) | > 100 µM (inactive) | > 100 µM (inactive) | > 100 µM (inactive) | > 100 µM (inactive) | > 100 µM (inactive) | > 100 µM (inactive) | > 100 µM (inactive)
Cc1c(N/C=C(\C#N)C(=O)c2ccc(Cl)cc2)c(=O)n(-c2ccccc2)n1C | > 100 µM (inactive) | > 100 µM (inactive) | 59.3 µM (inactive) | > 100 µM (inactive) | 48.8 µM (inactive) | 54 µM (inactive) |  | > 100 µM (inactive) | > 100 µM (inactive) | 38.7 µM (inactive) | > 100 µM (inactive) | > 100 |  | 34.6 µM (inactive) | > 100 µM (inactive) | 46.6 µM (inactive) | > 100 µM (inactive) | > 100 µM (inactive) | > 100 µM (inactive) | > 100 µM (inactive)
CC(C)C(OC(=O)c1ccc(NCC2=CC(=O)C=CC2=O)cc1)C(C)C | 1.99 µM (inactive) | 13.6 µM (inactive) | 6.44 µM (inactive) | 1.22 µM (inactive) | 9.12 µM (inactive) | 4.24 µM (inactive) | 2.01 µM (inactive) | 5.05 µM (inactive) | 5.2 µM (inactive) | 1.25 µM (inactive) | 1.82 µM (inactive) | 2.97 | 9.1 µM (inactive) | 3.15 µM (inactive) | 11.5 µM (inactive) | 3.52 µM (inactive) | 13.3 µM (inactive) | 5.15 µM (inactive) | 7.06 µM (inactive) | 13.2 µM (inactive)
CC[C@@H](/C=C\CCC(=O)C[C@H](O)CCC=C(C)C)O[Si](C(C)C)(C(C)C)C(C)C | > 100 µM (inactive) | > 100 µM (inactive) | > 100 µM (inactive) | 48.6 µM (inactive) | > 100 µM (inactive) | > 100 µM (inactive) | > 100 µM (inactive) | > 100 µM (inactive) | 88.9 µM (inactive) | 46 µM (inactive) | 83.9 µM (inactive) | > 100 | > 100 µM (inactive) | 57.3 µM (inactive) | > 100 µM (inactive) | > 100 µM (inactive) | > 100 µM (inactive) | 90.8 µM (inactive) | > 100 µM (inactive) | > 100 µM (inactive)
Cc1cccc(/C=N/NC(=S)N2CCCCCC2)n1 | 0.205 µM (active) | 0.468 µM (active) | 0.163 µM (active) | < 0.01 µM (active) | 0.449 µM (active) | 1.33 µM (inactive) | < 0.01 µM (active) | 0.299 µM (active) | 0.406 µM (active) | < 0.01 µM (active) | 0.515 µM (active) | 0.049 | 0.142 µM (active) | < 0.01 µM (active) | 0.23 µM (active) | 0.512 µM (active) |  | 0.0989 µM (active) | < 0.01 µM (active) | 0.331 µM (active)
O=[N+]([O-])c1cc2oc(CSc3ccccc3)nc2cc1Cl | 32.7 µM (inactive) | 23.5 µM (inactive) | 36.2 µM (inactive) | 29.3 µM (inactive) | 25.5 µM (inactive) | 29.6 µM (inactive) | 22.3 µM (inactive) | 26.7 µM (inactive) | 35 µM (inactive) | 30.3 µM (inactive) | 26.4 µM (inactive) | 19.2 | 59.7 µM (inactive) | 40.9 µM (inactive) | 32 µM (inactive) | 23.4 µM (inactive) | 31.3 µM (inactive) | 35.3 µM (inactive) | 32.2 µM (inactive) | 28.2 µM (inactive)
